Holding throughout (test): relative viability (nuclei count vs DMSO), 5 days (fraction); higher = more cells survive
Compound in assay [1]: C1COCCN1C2=NC(=NC3=C2OC4=C3C=CC=N4)C5=CC(=CC=C5)NC(=O)C6=CN=C(C=C6)N + Nc1nc2[nH]cc(CCc3ccc(C(=O)N[C@@H](CCC(=O)O)C(=O)O)cc3)c2c(=O)[nH]1 [Pemetrexed] (partner 0.2 µM)
A digest of the protocol:
(§1)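 Relative viability is defined as nuclei in treated wells over nuclei in vehicle wells. Duplicate plates were run and medians reported. Lung cancer cell lines in 1536-well plates were dosed by pin tool one day after seeding, with one drug or with a fixed anchor-drug dose plus five library-drug doses (not always all listed) in √10 steps, and nuclei were counted after 5 days.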

Compound in the assay “SGI-1776 + Foretinib”: CN1CCC(CNc2ccc3ncc(-c4cccc(OC(F)(F)F)c4)n3n2)CC1 [SGI-1776] + COc1cc2c(Oc3ccc(NC(=O)C4(C(=O)Nc5ccc(F)cc5)CC4)cc3F)ccnc2cc1OCCCN1CCOCC1 [Foretinib] (partner 0.25 µM)
A digest of the protocol: as §1

Compound in the assay “SGI-1776 + Pictilisib”: CN1CCC(CNc2ccc3ncc(-c4cccc(OC(F)(F)F)c4)n3n2)CC1 [SGI-1776] + CS(=O)(=O)N1CCN(Cc2cc3nc(-c4cccc5[nH]ncc45)nc(N4CCOCC4)c3s2)CC1 [Pictilisib] (partner 1 µM)
A digest of the protocol:
as §1

Compound in the assay “Entinostat + Alpelisib”: Nc1ccccc1NC(=O)c1ccc(CNC(=O)OCc2cccnc2)cc1 [Entinostat] + Cc1nc(NC(=O)N2CCC[C@H]2C(N)=O)sc1-c1ccnc(C(C)(C)C(F)(F)F)c1 [Alpelisib] (partner 2 µM)
A digest of the protocol: as §1

This note sets out measurements from the supplement of paper PMC10307832.

Consider NCI-H3122, for which the relative viability amounted to 0.207 in assay [1] (first compound 0.02 µM); 0.199 in assay [1] (first compound 0.06325 µM); 0.183 in assay [1] (first compound 0.2 µM); 0.186 in assay [1] (first compound 0.6325 µM); 0.183 in assay [1] (first compound 2 µM); 0.968 with SGI-1776 + Foretinib (first compound 0.08 µM). Also, the relative viability was 0.964 with SGI-1776 + Foretinib (first compound 0.8 µM); 1.04 in the assay with SGI-1776 + Foretinib (first compound 2.53 µM); 1.04 in the assay with SGI-1776 + Foretinib (first compound 8 µM); 0.594 with SGI-1776 + Pictilisib (first compound 0.08 µM); 0.717 with SGI-1776 + Pictilisib (first compound 0.8 µM); 0.632 with SGI-1776 + Pictilisib (first compound 2.53 µM). The relative viability with SGI-1776 + Pictilisib (first compound 8 µM) was found to be 0.515; in the assay with Entinostat + Alpelisib (first compound 0.02 µM), 0.777; with Entinostat + Alpelisib (first compound 0.06325 µM), 0.881; in the assay with Entinostat + Alpelisib (first compound 0.2 µM), 0.786; with Entinostat + Alpelisib (first compound 0.6325 µM), 0.733; in the assay with Entinostat + Alpelisib (first compound 2 µM), 0.605.
Turning to PC-3 [JPC-3], the relative viability in assay [1] (first compound 0.02 µM) was 1.21; in assay [1] (first compound 0.06325 µM), 1.09; in assay [1] (first compound 0.6325 µM) it was 1.08; in assay [1] (first compound 2 µM), 1.17; with SGI-1776 + Foretinib (first compound 0.08 µM) it was 1.03; with SGI-1776 + Foretinib (first compound 0.8 µM) it was 1.01. In addition, the relative viability in the assay with SGI-1776 + Foretinib (first compound 2.53 µM) amounted to 1.08; in the assay with SGI-1776 + Foretinib (first compound 8 µM), 0.978; in the assay with SGI-1776 + Pictilisib (first compound 0.08 µM) it was 0.72; in the assay with SGI-1776 + Pictilisib (first compound 0.8 µM), 0.779; with SGI-1776 + Pictilisib (first compound 2.53 µM) it was 0.768; with SGI-1776 + Pictilisib (first compound 8 µM), 0.478. In addition, the relative viability is 0.98 in the assay with Entinostat + Alpelisib (first compound 0.02 µM); 0.929 with Entinostat + Alpelisib (first compound 0.06325 µM); 0.829 in the assay with Entinostat + Alpelisib (first compound 0.2 µM); 0.667 with Entinostat + Alpelisib (first compound 0.6325 µM); 0.463 with Entinostat + Alpelisib (first compound 2 µM).
As for PC-14, the relative viability in assay [1] (first compound 0.02 µM) stood at 0.14; in assay [1] (first compound 0.06325 µM) it was 0.135; in assay [1] (first compound 0.2 µM) it was 0.129; in assay [1] (first compound 0.6325 µM), 0.0787; in assay [1] (first compound 2 µM), 0.0733; in the assay with SGI-1776 + Foretinib (first compound 0.08 µM) it was 1.03. Besides, the relative viability turned out to be 0.959 with SGI-1776 + Foretinib (first compound 0.8 µM); 0.952 with SGI-1776 + Foretinib (first compound 2.53 µM); 0.672 with SGI-1776 + Foretinib (first compound 8 µM); 0.667 with SGI-1776 + Pictilisib (first compound 0.08 µM); 0.681 with SGI-1776 + Pictilisib (first compound 0.8 µM); 0.747 in the assay with SGI-1776 + Pictilisib (first compound 2.53 µM). The relative viability came to 0.195 in the assay with SGI-1776 + Pictilisib (first compound 8 µM); 1.03 with Entinostat + Alpelisib (first compound 0.02 µM); 0.99 with Entinostat + Alpelisib (first compound 0.06325 µM); 0.935 in the assay with Entinostat + Alpelisib (first compound 0.2 µM); 0.487 with Entinostat + Alpelisib (first compound 0.6325 µM); 0.219 with Entinostat + Alpelisib (first compound 2 µM).
On to RERF-LC-KJ, for which the relative viability worked out at 0.507 in assay [1] (first compound 0.02 µM); 0.46 in assay [1] (first compound 0.06325 µM); 0.484 in assay [1] (first compound 0.2 µM); 0.457 in assay [1] (first compound 0.6325 µM); 0.376 in assay [1] (first compound 2 µM); 0.879 with SGI-1776 + Foretinib (first compound 0.08 µM). The relative viability came out at 0.894 with SGI-1776 + Foretinib (first compound 0.8 µM); 0.879 in the assay with SGI-1776 + Foretinib (first compound 2.53 µM); 0.78 with SGI-1776 + Foretinib (first compound 8 µM); 0.556 in the assay with SGI-1776 + Pictilisib (first compound 0.08 µM); 0.533 with SGI-1776 + Pictilisib (first compound 0.8 µM); 0.568 in the assay with SGI-1776 + Pictilisib (first compound 2.53 µM). For the same cell line, the relative viability stood at 0.353 in the assay with SGI-1776 + Pictilisib (first compound 8 µM); 0.846 in the assay with Entinostat + Alpelisib (first compound 0.02 µM); 0.704 in the assay with Entinostat + Alpelisib (first compound 0.06325 µM); 0.866 with Entinostat + Alpelisib (first compound 0.2 µM); 0.647 with Entinostat + Alpelisib (first compound 0.6325 µM); 0.427 with Entinostat + Alpelisib (first compound 2 µM).
Regarding SK-LU-1, the relative viability in assay [1] (first compound 0.02 µM) came to 1.07; in assay [1] (first compound 0.06325 µM) it was 0.953; in assay [1] (first compound 0.2 µM), 1.06; in assay [1] (first compound 0.6325 µM) it was 0.917; in assay [1] (first compound 2 µM) it was 0.465; in the assay with SGI-1776 + Foretinib (first compound 0.08 µM), 0.843. For the same cell line, the relative viability in the assay with SGI-1776 + Foretinib (first compound 0.8 µM) amounted to 0.773; with SGI-1776 + Foretinib (first compound 2.53 µM), 0.765; with SGI-1776 + Foretinib (first compound 8 µM), 0.426; with SGI-1776 + Pictilisib (first compound 0.08 µM), 0.609; in the assay with SGI-1776 + Pictilisib (first compound 0.8 µM), 0.623; with SGI-1776 + Pictilisib (first compound 2.53 µM), 0.409. Also, the relative viability in the assay with SGI-1776 + Pictilisib (first compound 8 µM) amounted to 0.361; in the assay with Entinostat + Alpelisib (first compound 0.02 µM), 0.954; with Entinostat + Alpelisib (first compound 0.06325 µM) it was 0.962; with Entinostat + Alpelisib (first compound 0.2 µM), 0.943; with Entinostat + Alpelisib (first compound 0.6325 µM) it was 0.555; with Entinostat + Alpelisib (first compound 2 µM), 0.458.
In the case of SK-MES-1, the relative viability in assay [1] (first compound 0.02 µM) is 0.984; in assay [1] (first compound 0.06325 µM), 0.958; in assay [1] (first compound 0.2 µM) it was 0.827; in assay [1] (first compound 0.6325 µM) it was 0.86; in assay [1] (first compound 2 µM), 0.646; in the assay with SGI-1776 + Foretinib (first compound 0.08 µM) it was 1.06. Besides, the relative viability with SGI-1776 + Foretinib (first compound 0.8 µM) turned out to be 0.762; with SGI-1776 + Foretinib (first compound 2.53 µM), 0.857; with SGI-1776 + Foretinib (first compound 8 µM), 0.648; in the assay with SGI-1776 + Pictilisib (first compound 0.08 µM), 0.364; with SGI-1776 + Pictilisib (first compound 0.8 µM) it was 0.353; in the assay with SGI-1776 + Pictilisib (first compound 2.53 µM) it was 0.33. Further, the relative viability was found to be 0.278 in the assay with SGI-1776 + Pictilisib (first compound 8 µM); 0.932 in the assay with Entinostat + Alpelisib (first compound 0.02 µM); 1.02 with Entinostat + Alpelisib (first compound 0.06325 µM); 1.05 in the assay with Entinostat + Alpelisib (first compound 0.2 µM); 0.81 with Entinostat + Alpelisib (first compound 0.6325 µM); 0.682 in the assay with Entinostat + Alpelisib (first compound 2 µM).
Turning to SW 1573, the relative viability came out at 0.925 in assay [1] (first compound 0.02 µM); 0.731 in assay [1] (first compound 0.06325 µM); 0.794 in assay [1] (first compound 0.2 µM); 0.812 in assay [1] (first compound 0.6325 µM); 0.322 in assay [1] (first compound 2 µM); 0.949 with SGI-1776 + Foretinib (first compound 0.08 µM). The relative viability with SGI-1776 + Foretinib (first compound 0.8 µM) is 0.846; with SGI-1776 + Foretinib (first compound 2.53 µM) it was 0.846; in the assay with SGI-1776 + Foretinib (first compound 8 µM), 0.791; with SGI-1776 + Pictilisib (first compound 0.08 µM), 0.452; with SGI-1776 + Pictilisib (first compound 0.8 µM), 0.449; with SGI-1776 + Pictilisib (first compound 2.53 µM), 0.424. Further, the relative viability in the assay with SGI-1776 + Pictilisib (first compound 8 µM) amounted to 0.393; with Entinostat + Alpelisib (first compound 0.02 µM), 0.672; with Entinostat + Alpelisib (first compound 0.06325 µM) it was 0.665; in the assay with Entinostat + Alpelisib (first compound 0.2 µM), 1.04; in the assay with Entinostat + Alpelisib (first compound 0.6325 µM), 0.819; in the assay with Entinostat + Alpelisib (first compound 2 µM) it was 0.83.
